“Also recorded” adds a separate entry of the source.
Key:
[1] = system: embryonic chick DRG neurons; assay: Cryoculture assay of nerve explant cultures (predegeneration); assay type: cell-based; conditions: 2-day, 2% serum culture with GM6001 (50 μM); 68% without
Source text: Nerve explant culture for predegeneration experiments. Adult (180-200 gm) female SPRAGUE DAWLEY rats (HARLAN, Indianapolis, Ind.) were used as nerve donors and graft recipients. This project was reviewed and approved by the Institutional Animal Care and Use Committee. Donor rats were deeply anesthetized with isofluorane and decapitated. Sciatic nerves were exposed through a gluteal muscle-splitting incision and isolated free of underlying fascia. A 15-mm nerve segment was excised rostral to the bifurcation into common peroneal and tibial nerves. The segments were rinsed with sterile Ringer's solution and stabilized by pinning the ends to a thin plastic support. […]
Cryoculture bioassay. […] Neurite lengths were measured directly using IMAGE-PRO PLUS software (MEDIA CYBERNETICS, Silver Springs, Md.). At least 250 neurons with neurites greater than one cell body (˜15 μm) were scored for each condition in each experiment.
Freshly excised (cellular) rat sciatic nerve segments were cultured for up to 7 days in medium containing 0, 2 and 10% fetal bovine serum. Control (uncultured) and cultured nerves were cryosectioned and their neurite-promoting activity was assessed by cryoculture assay. […]

[2] = system: cells of cultured nerve segments; assay: Dissociation culture (squash preparations) of nerve segments; assay type: cell-based, rat; conditions: nerve segments cultured 2 days with and without GM6001
[3] = system: MMP gelatinolytic activity; assay: In situ zymography of cultured nerve explants; assay type: biochemical, rat; conditions: nerves cultured 2-day, 2% serum in presence of GM6001
Description: In situ zymography for nerve predegeneration experiments. Cryosections (10 μm) of unfixed normal and cultured nerves were mounted on slides and overlaid with reaction buffer (50 mM Tris-HCl, 150 mM NaCl, 5 mM CaCl2, 0.2 mM sodium azide, pH 7.6) containing 20 μg/ml of intramolecularly quenched, fluorescein-labeled gelatin substrate (MOLECULAR PROBES INC., Eugene, Oreg.) (Oh et al., 1999). In the control condition, the MMP inhibitor EDTA (30 mM) was included in the reaction buffer. After incubation for 24 h at 37° C., the sections were rinsed with PBS and fixed with 4% paraformaldehyde in phosphate buffer. The sections were rinsed with water and mounted using Citifluor. Fluorescein-gelatin peptides generated by gelatinolytic activity in the tissue sections were observed and photographed by epifluorescence microscopy.
The activity of MMPs is regulated by gene transcription, proenzyme activation and by the action of tissue inhibitors of metalloproteinases. The net gelatinolytic activity in nerve segments by in situ zymography was examined. Tissue sections were overlaid with quenched, fluorescein-gelatin, which is converted to fluorescent peptides by gelatinolytic activity within tissues. Constitutive gelatinolytic activity was detected in normal nerve mostly associated with Schwann cells aligned along the endoneurial basal lamina (as shown in FIGS. 17A and 17B). […]

## CNC(=O)[C@H](Cc1c[nH]c2ccccc12)NC(=O)[C@@H](CC(=O)NO)CC(C)C [GM6001]
[1]
  increase in neurite length over control nerves for nerves cultured in presence of inhibitor: 14%
[2]
  cell viability (cell outgrowth): no loss of cell viability
[3]
  gelatinolytic activity in treated nerve explants: nearly undetectable; also recorded: markedly decreased

— patent US8986733B2, “Materials and methods for nerve repair” (University of Florida Research Foundation, Inc., priority 2001, dated 2015)
